{"source": "patent US20010051630A1", "about": "“Use of hydroxylamine derivatives, and method and preparations for increasing the tolerance of field crops against weather stresses” (priority 1997, published 2001)", "key": {"soybean cv. Bólyi 44": {"system": "soybean cv. Bólyi 44", "assay": "Drought tolerance of soybeans", "format": "in vivo", "details": "6 days hardening; 50 mg/liter in the water; 4 days without watering, one week regeneration", "description": "Soybeans of soybean cv. Bólyi 44 were hardened for 6 days by withholding the water. This was followed by two days of watering, and the active agent was applied in the water. The concentration of the solution of the active agent was 50 mg/liter. After a 4-day-long cease of watering and a one week regeneration period, the number of surviving plants was recorded.\nWatering was ceased for 10 days for a certain group of plants in the experiment. It was observed that almost every plant perished. Each of the 4 surviving plants had previously been treated with the active agent."}, "green peppers": {"system": "green peppers", "assay": "CSVT, green peppers", "format": "in vivo, pepper", "description": "(§1) In this experiment the tolerance of maize, soybean and pepper seeds treated with the active agent against cold was tested. This test imposed temperature and oxygen deficiency stresses on the seeds and was carried out according to Barla-Szabó and Dolinka CSVT (Complex Stressing Vigour Test). For a single test, two hundred seeds were soaked for 48 hours at 25° C. and another 48 hours at 5° C in 150 ml distilled water containing the active agent in 10 mg/l concentration. Following the 96 hours of soaking, the seeds were further germinated between rolled wet paper for 96 hours at 25° C. There were 25 seeds in each roll, the rolls were placed vertically into containers and covered with a plastic bag in order to reduce evaporation. During the whole procedure the seeds were kept in darkness.\n(§2) At the end of the experiment the number of normally developing and ungerminated seeds were recorded. The length of the normal seedlings was measured and the average length of the five longest seedlings was calculated. Seedlings longer than 0.33 times the average length of the five longest seedlings were considered to be of high vigour, and low vigour seedlings were shorter than this length.\nUnder the circumstances of the CSVT test, they increased the length of the sprouts and the roots along with the proportion of the high vigour seedlings. […]"}, "Mo 17 maize inbred line": {"system": "Mo 17 maize inbred line", "assay": "Chilling tolerance of maize in a gradient chamber", "format": "in vivo", "description": "The experiment was performed using the Mo 17 maize inbred line. The seeds were coated with a 2% solution of the examined compound dissolved in 2 ml polyvinylalcohol before germination, where the above quantity of solution is applied for 100 seeds. The seeds were germinated for 3 days wrapped in wet filter paper, they were sown and then cultivated in gradient chamber for 6 weeks. In the gradient chamber, the temperature was maintained on a scale between 18 and 12° C., with differences of 1° C. This was followed by a one week regeneration at 23/20° C. temperature.\nIn the experiment, the length of the plants was measured 16, 31 and 43 days after the sowing, and at the end of the experiment the fresh weight of the plants was measured. The experiment was performed on 4 plants at each temperature and by each treatment."}, "HMv09 inbred maize line": {"system": "HMv09 inbred maize line", "assay": "CSVT, seeds soaked in active agent, HMv09 maize", "format": "in vivo", "details": "seeds soaked in 10 mg/l active agent", "description": "as §1, with “darkness. At the end of the experiment the number of normally developing and ungerminated seeds were recorded. The length of the normal seedlings was measured and the average length of the five longest seedlings was calculated. Seedlings longer than 0.33 times the average length of the five longest seedlings were considered to be of high vigour, and low vigour seedlings were shorter than this length.” for “darkness.”"}, "[1]": {"system": "maize of high chilling tolerance (HT) population", "assay": "CSVT, maize population of high chilling tolerance (HT)", "format": "in vivo", "description": "as §1, §2\nIn the case of a further experiment with maize of low chilling tolerance (LT) and high chilling tolerance (HT) populations [Ref: P. Landi, E. Frascaroli, A. Lovato; EUPHYTICA 64 21-29 (1992)], the following positive effects were found (Table 3.)."}, "McCall soybeans": {"system": "McCall soybeans", "assay": "CSVT with PVA-pearled McCall soybeans, relative length", "format": "in vivo, soybean", "details": "2.5 mg in 1 ml 2.5% PVA per 100 seeds", "description": "as §1\nIn a further CSVT experiment also using McCall soybeans, polyvinylalcohol (PVA) was applied for pearling the seeds. The 2.5 mg doses of the active agents were dissolved in 1 ml of 2.5% PVA solution, and this quantity was applied to 100 pieces of seeds. The improvement of the chilling tolerance is observed by the significant elongation of the germ and the roots."}, "bean plants (cv. Seaway)": {"system": "bean plants (cv. Seaway)", "assay": "Drought tolerance of beans, part b (7 days hardening)", "format": "in vivo", "details": "7 days without water, 10 mg/liter and 100 mg/liter solution named, table does not say which", "source_text": "Based on the experiences of our preliminary experiments, the plants were hardened before the application of the active agent by withholding the water for a few days, until the first signs of withering appeared. Then the plants were watered and the active agent was either dissolved in the water, or sprayed to the plants directly. Afterwards, the plants were subjected to different periods of drought according to the given experiment, watered again, and after a week-long regeneration period, the survival ratio was determined.\nb) In this experiment, bean plants (cv. Seaway) were hardened for 7 days instead of the 5 days described in Part a. Then a 10 mg/liter and 100 mg/liter concentration solution of the active agent was applied two times a day for two days. Then 7 days without water followed, and after a week-long regeneration period, the results of the experiment were evaluated."}}, "note": "Marks after values point to notes of the source that are not given here."}
{"smiles": "CC(C)(C)NCC(O)CONC(=O)c1cccc(C(F)(F)F)c1.Cl", "note": "(centres unmarked) [Compound 1, N-[2-hydroxy-3-(1,1-dimethylethyl-amino)propoxy]-3-trifluoromethyl-benzamide monohydrochloride]", "values": [{"measurement": "Survival (%)", "setting": "soybean cv. Bólyi 44", "value": "25* %"}, {"measurement": "Ratio of high vigour plants (%)", "setting": "green peppers", "value": "47* %"}, {"measurement": "Length (cm)", "setting": "Mo 17 maize inbred line; 12° C., 16 days", "value": 5.0, "unit": "cm"}, {"measurement": "Length (cm)", "setting": "Mo 17 maize inbred line; 12° C., 31 days", "value": 7.9, "unit": "cm"}, {"measurement": "FW (g), fresh weight", "setting": "Mo 17 maize inbred line; 12° C., 43 days", "value": 1.2, "unit": "g"}, {"measurement": "Length (cm)", "setting": "Mo 17 maize inbred line; 12° C., 43 days", "value": 18.9, "unit": "cm"}, {"measurement": "Length (cm)", "setting": "Mo 17 maize inbred line; 13° C., 16 days", "value": 6.0, "unit": "cm"}, {"measurement": "Length (cm)", "setting": "Mo 17 maize inbred line; 13° C., 31 days", "value": 10.1, "unit": "cm"}, {"measurement": "FW (g), fresh weight", "setting": "Mo 17 maize inbred line; 13° C., 43 days", "value": 1.0, "unit": "g"}, {"measurement": "Length (cm)", "setting": "Mo 17 maize inbred line; 13° C., 43 days", "value": 16.0, "unit": "cm"}, {"measurement": "Length (cm)", "setting": "Mo 17 maize inbred line; 14° C., 16 days", "value": 7.6, "unit": "cm"}, {"measurement": "Length (cm)", "setting": "Mo 17 maize inbred line; 14° C., 31 days", "value": 15.4, "unit": "cm"}, {"measurement": "FW (g), fresh weight", "setting": "Mo 17 maize inbred line; 14° C., 43 days", "value": 2.7, "unit": "g"}, {"measurement": "Length (cm)", "setting": "Mo 17 maize inbred line; 14° C., 43 days", "value": 25.9, "unit": "cm"}, {"measurement": "Length (cm)", "setting": "Mo 17 maize inbred line; 15° C., 16 days", "value": 10.0, "unit": "cm"}, {"measurement": "Length (cm)", "setting": "Mo 17 maize inbred line; 15° C., 31 days", "value": 17.7, "unit": "cm"}, {"measurement": "FW (g), fresh weight", "setting": "Mo 17 maize inbred line; 15° C., 43 days", "value": 3.6, "unit": "g"}, {"measurement": "Length (cm)", "setting": "Mo 17 maize inbred line; 15° C., 43 days", "value": 28.5, "unit": "cm"}, {"measurement": "Length (cm)", "setting": "Mo 17 maize inbred line; 16° C., 16 days", "value": 15.2, "unit": "cm"}, {"measurement": "Length (cm)", "setting": "Mo 17 maize inbred line; 16° C., 31 days", "value": 24.8, "unit": "cm"}, {"measurement": "FW (g), fresh weight", "setting": "Mo 17 maize inbred line; 16° C., 43 days", "value": 4.5, "unit": "g"}, {"measurement": "Length (cm)", "setting": "Mo 17 maize inbred line; 16° C., 43 days", "value": 32.3, "unit": "cm"}, {"measurement": "Length (cm)", "setting": "Mo 17 maize inbred line; 17° C., 16 days", "value": 17.0, "unit": "cm"}, {"measurement": "Length (cm)", "setting": "Mo 17 maize inbred line; 17° C., 31 days", "value": 27.7, "unit": "cm"}, {"measurement": "FW (g), fresh weight", "setting": "Mo 17 maize inbred line; 17° C., 43 days", "value": 5.5, "unit": "g"}, {"measurement": "Length (cm)", "setting": "Mo 17 maize inbred line; 17° C., 43 days", "value": 36.5, "unit": "cm"}, {"measurement": "Length (cm)", "setting": "Mo 17 maize inbred line; 18° C., 16 days", "value": 13.2, "unit": "cm"}, {"measurement": "Length (cm)", "setting": "Mo 17 maize inbred line; 18° C., 31 days", "value": 28.4, "unit": "cm"}, {"measurement": "FW (g), fresh weight", "setting": "Mo 17 maize inbred line; 18° C., 43 days", "value": 6.0, "unit": "g"}, {"measurement": "Length (cm)", "setting": "Mo 17 maize inbred line; 18° C., 43 days", "value": 37.0, "unit": "cm"}, {"measurement": "Ratio of high vigour plants (%)", "setting": "HMv09 inbred maize line", "value": "49* %"}, {"measurement": "Ratio of high vigour plants %, HT", "setting": "[1]", "value": "98* %"}, {"measurement": "Relative length (control = 100), germ", "setting": "McCall soybeans", "value": 106}, {"measurement": "Relative length (control = 100), root", "setting": "McCall soybeans", "value": 128}, {"measurement": "Survival (%)", "setting": "bean plants (cv. Seaway)", "value": "14* %"}]}
